Results on nine molecules are retold here after PubChem BioAssay (NCI).

Structures are written as SMILES.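 48-hour exposure; five concentrations; linearly interpolated endpoints. GI50: concentration for 50% inhibition of growth. TGI is the concentration that stops growth completely.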

What all share (experiment): NCI-60 cell line screen, 48 h
Assay [1] has as its system NCI-H460 lung.
Assay [2] relates to SNB-19 CNS.
The test system of assay [3] is COLO 205 colon.
For assay [4], the system named is SK-OV-3 ovarian.
Assay [5] deals with MALME-3M melanoma.
Assay [6] deals with MDA-MB-435.
Assay [7] has as its system EKVX NSCLC.
Assay [8] deals with HT29 colon.
Assay [9] has as its system OVCAR-3 ovarian.
Assay [10] concerns HL-60(TB) leukemia.

For the molecule `C=C1C(O)C2CCC(C)(C)C(=O)C2=C(CC(C)C)C12CC2` (stereo not drawn), the GI50 in [1] is 32.8 µM; in assay [2] it was 59.5 µM; in assay [3], 22.7 µM; in assay [4], > 100 µM; in assay [5] it was 35.6 µM; in assay [6] it was 67.4 µM. For the same molecule, the values for the GI50 in assay [7], in assay [8] and in assay [9] were 78.7 µM, 76.6 µM and 34.7 µM, respectively. For the same molecule, the TGI in [1] is > 100 µM; in [2], > 100 µM; in assay [3], 53.6 µM; in [4], > 100 µM; in assay [5] it was > 100 µM; in assay [6], > 100 µM. The TGI in assay [7], in assay [8] and in [9] was > 100 µM each time.

Turning to `O=C1/C(=C/c2ccc(F)cc2)CCOc2ccc([N+](=O)[O-])cc21`, the GI50 in assay [1] is 17.4 µM; in assay [2] it was 4.26 µM; in [3], 18.8 µM; in [4], 17 µM; in [5] it was 2.27 µM; in [6] it was 1.94 µM. Moreover, the GI50 in [7] is 16.5 µM; in assay [9] it was 2.33 µM. Moreover, the TGI was 34.9 µM in [1]; 16.2 µM in [2]; 35 µM in assay [3]; 32.6 µM in assay [4]; 5.79 µM in assay [5]; 7.26 µM in assay [6]. Besides, the TGI in assay [7] was 30.5 µM; in assay [9] it was 5.61 µM.

Turning to `N#Cc1c(-c2cccs2)c2c(=S)[nH]c(=S)[nH]c2[nH]c1=S`, the GI50 in assay [1] is 39.1 µM; in assay [2], 75.7 µM; in assay [3], 28.8 µM; in assay [4], 46 µM; in [6], 41.1 µM; in assay [7] it was 20 µM. Also, the GI50 in assay [9] was 34.5 µM; in assay [10] it was 15.4 µM. Besides, the TGI in assay [1] is 72.9 µM; in assay [2] it was > 100 µM; in [3], > 100 µM; in assay [4] it was > 100 µM; in [6], > 100 µM; in [7], 60.8 µM. The results for the TGI in assay [9] and in assay [10] were 98.8 µM and 47.9 µM, respectively.

For `O=C(/C=C/c1ccc(Cl)cc1)c1ccc(Cl)cc1Cl`, the GI50 in assay [1] is 10.4 µM; in [2], 13.3 µM; in assay [3] it was 12.1 µM; in assay [4], 6.84 µM; in assay [6] it was 9.11 µM; in assay [7], 9.33 µM. For the same molecule, the GI50 in assay [9] is 9.19 µM; in assay [10], 7.25 µM. Moreover, the TGI in assay [1] was 24.8 µM; in [2], 29.5 µM; in assay [3], 30.8 µM; in [4], 14.5 µM; in assay [6], 24.3 µM; in assay [7] it was 19.7 µM. Also, the TGI in assay [9] came out at 18.4 µM; in assay [10], 27.9 µM.

In the case of `COc1ccc(-c2cc(-c3cc(Cl)ccc3Cl)nc3[nH]c(-c4cc(F)c(Cl)cc4Cl)cc(=O)c23)cc1`, the GI50 in assay [1] was 87.3 µM; in [2], 64.1 µM; in [3], 43.6 µM; in assay [4], 84.6 µM; in assay [6], 6.4 µM; in assay [7] it was 45 µM. Moreover, the GI50 in [8] was 39.2 µM; in assay [9], > 100 µM. Also, the TGI in assay [1], in assay [2], in assay [3], in assay [4], in assay [6] and in [7] was > 100 µM throughout. The TGI in assay [8] and in assay [9] was > 100 µM each time.

On to `CN=C(N)N/N=C(\c1ccccc1)c1ccc(Br)cc1`, for which the GI50 in [1] was 0.355 µM; in [2] it was 0.6 µM; in assay [3], 0.279 µM; in [4] it was 0.462 µM; in [5], 1.13 µM; in assay [6], 0.179 µM. Besides, the results for the GI50 in assay [8], in assay [9] and in assay [10] were 0.322 µM, 0.29 µM and 0.216 µM, respectively. Also, the TGI in assay [1] was determined as 9.05 µM; in assay [2], 13.9 µM; in assay [3], 1.04 µM; in assay [4] it was 12.3 µM; in [5], 4.24 µM; in assay [6], 0.511 µM. Further, the TGI was found to be 1.72 µM in [8], 2.55 µM in assay [9] and 0.567 µM in assay [10].

On to `CCC(C)C1NC(=O)c2nc(oc2-c2ccccc2)-c2csc(n2)-c2csc(n2)-c2nc(oc2C)-c2coc(n2)CNC(=O)C(C(C)CC)NC1=O` (stereo not drawn), for which the GI50 in assay [1] is 0.0102 µM; in [6], 0.0464 µM; in assay [9], 0.0201 µM. Moreover, the TGI was 0.0268 µM in assay [1], 0.163 µM in assay [6] and 0.0642 µM in assay [9].

For `CNC(=O)c1ccccc1CC1(O)c2ccccc2Oc2ccccc21`, the GI50 in [1] was 25 µM; in assay [2] it was 24.6 µM; in assay [3], 3.99 µM; in assay [4], 24 µM; in assay [5] it was 22.8 µM; in [6], 3.32 µM. Besides, the GI50 in assay [8] was 9.73 µM. In addition, the TGI in [1] was 82.6 µM; in [2], > 100 µM; in assay [3], 15.9 µM; in [4] it was 87.3 µM; in assay [5], > 100 µM; in [6] it was 19.9 µM. In addition, the TGI in [8] is 51.1 µM.

On to `COc1cc2c3c(cccc3c1)C(=O)N(CCN1CCCC1)C2=O`, for which the GI50 was 2.26 µM in [1]; 2.83 µM in assay [2]; 1.48 µM in assay [3]; 3.27 µM in [4]; 1.88 µM in assay [5]; 2.81 µM in assay [6]. Further, the figures for the GI50 in [8], in assay [9] and in assay [10] were 1.79 µM, 2.3 µM and 3.65 µM, respectively. In addition, the TGI is 11.3 µM in [1]; 58.6 µM in [2]; 3.28 µM in assay [3]; 14.5 µM in assay [4]; 4.1 µM in assay [5]; 8.25 µM in assay [6]. In addition, the results for the TGI in [8], in [9] and in assay [10] were 20.2 µM, 6.29 µM and 61 µM, respectively.
